Earlier results, collected in US20230065964A1, “COMPOSITION FOR ENHANCING UROLITHIN PRODUCTION IN A HUMAN SUBJECT” (Migalis ApS, priority 2020, published 2023).

Assays:
[1] = tested on: Chaenorhabditis elegans; conditions: for Pharyngeal pumping rate and mobility: during aging
[2] = tested on: old mice
[3] = tested on: skeletal muscle of humans; conditions: 28 days oral administration, 500 mg/d and 1000 mg/d

Row | SMILES | Pharyngeal pumping rate and mobility [1] | mitochondrial biogenesis ([1]; older worms) | mitophagy ([1]; throughout the duration of the treatment) | Lean muscle mass [2] | greater level of spontaneous exercise (muscle function) [2] [%] | greater running endurance (endurance capacity) [2] [%] | expression of autophagy and mitophagy transcripts ([2]; molecular level) | mitochondrial biogenesis in the skeletal muscle [3]
1 | O=c1oc2c(O)c(O)ccc2c2cc(O)c(O)cc12 [urolithin D] | mild to no benefit |  |  |  |  |  |  | 
2 | O=c1oc2cc(O)ccc2c2ccc(O)cc12 [Urolithin A, urolithin A] | improved | activated | activated mitophagy | did not increase | 57 | 42 | general tendency for a higher expression | stimulated
3 | O=c1oc2cc(O)ccc2c2cc(O)c(O)cc12 [urolithin C] | mild to no benefit |  |  |  |  |  |  | 
